# From US8759520B2, “Compounds for treating cancer” (Boehringer Ingelheim International GmbH, priority 2008, dated 2014)
# Target: Bcl-2 (Homo sapiens, UniProt P10415)
# Assay: Homogeneous HTS assay for inhibitors of the Bcl-2 : Bak (72-87) BH3 domain interaction, fluorescence polarisation (2D-FIDA)
# Assay type: binding
# Conditions: fluorescence polarisation, fluorescent labelled Bak BH3 domain derived peptide; read-out: IC50 [μM] Bcl-2
# Excerpt: FIG. 1 is a schematic drawing of the Bcl-2: Bak (72-87) interaction assay based on fluorescence polarisation.
# The homogeneous HTS assay for inhibitors of the Bcl-2 is shown schematically in FIG. 1. BH3 domain interaction is based on fluorescence polarisation. The inherent rotational diffusion of the Bak BH3 domain derived fluorescent labelled peptide decreases upon binding to Bc1-2. This shift in rotational diffusion is quantitated using the two-dimensional fluorescence intensity distribution analysis (2D-FIDA; Kask et al. 2000, Biophys. J. 78: 1703-1713).
# Two different BH3 domain derived peptide ligands were synthesised and subsequently fluorescently labelled: • a 16mer peptide covering amino acids 72-87 of the Bak protein; this peptide had been used by Wang and co-workers and Holinger and coworkers in their Bcl-2 protein binding studies; Wang and co-workers reported an equilibrium binding constant KD of ˜0.2 μM to Bcl-2 protein; • peptide sequence: GQVGRQLAIIGDDINR—N (Wang et al. 2002, Proc. Natl. Acad. Sci. U.S.A. 97: 7124-7129; Holinger et al. 1999, J. Biol. Chem. 274: 13298-13304).
# Sequence of Bcl-2 (P10415 whole entry, species assumed, the tested form may be a part): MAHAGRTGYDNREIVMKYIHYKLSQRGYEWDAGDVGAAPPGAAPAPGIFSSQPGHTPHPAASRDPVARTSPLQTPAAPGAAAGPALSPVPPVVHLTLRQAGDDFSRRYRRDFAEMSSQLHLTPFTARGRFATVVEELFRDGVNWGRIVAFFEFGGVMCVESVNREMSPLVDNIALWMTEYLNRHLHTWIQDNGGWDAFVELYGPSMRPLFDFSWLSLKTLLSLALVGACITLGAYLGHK
row,SMILES,IC50 [µM]
1,"Cc1ccc2c(c1)n(Cc1ccc(N3CCN(Cc4ccccc4-c4ccccc4)CC3)cc1)c(=N)n2CCCOc1ccc(F)cc1 [Compound 62, 3-[4-(4-Biphenyl-2-ylmethyl-piperazin-1-yl)-benzyl]-1-[3-(4-fluoro-phenoxy)-propyl]-5-methyl-1,3-dihydro-benzoimidazol-2-ylideneamine]",< 10
2,"N=c1n(CCCOc2ccc(F)cc2)c2ccc(F)cc2n1Cc1ccc(N2CCN(Cc3ccccc3-c3ccccc3)CC2)cc1 [Compound 63, 3-[4-(4-Biphenyl-2-ylmethyl-piperazin-1-yl)-benzyl]-5-fluoro-1-[3-(4-fluoro-phenoxy)-propyl]-1,3-dihydro-benzoimidazol-2-ylideneamine]",11 to 100
3,"CC1(C)CCC(c2ccc(Cl)cc2)=C(CN2CCN(c3ccc(Cn4c(=N)n(CCCOc5ccc(F)cc5)c5ccc(F)cc54)cc3)CC2)C1 [Compound 64, 3-(4-{4-[2-(4-Chloro-phenyl)-5,5-dimethyl-cyclohex-1-enylmethyl]-piperazin-1-yl}-benzyl)-5-fluoro-1-[3-(4-fluoro-phenoxy)-propyl]-1,3-dihydro-benzoimidazol-2-ylideneamine]",< 10
4,"CCOC(=O)c1cccc(OCCCn2c(=N)n(Cc3ccc(Br)cc3)c3ccccc32)c1 [Compound 65, 3-{3-[3-(4-Bromo-benzyl)-2-imino-2,3-dihydro-benzoimidazol-1-yl]-propoxy}-benzoic acid ethyl ester]",11 to 100
5,"COC(=O)c1ccc(OCCCn2c(=N)n(Cc3ccc(Br)cc3)c3ccccc32)cc1 [Compound 66, 4-{3-[3-(4-Bromo-benzyl)-2-imino-2,3-dihydro-benzoimidazol-1-yl]-propoxy}-benzoic acid methyl ester]",11 to 100
6,"COC(=O)c1ccc(OCCCn2c(=N)n(Cc3cccc(Br)c3)c3ccccc32)cc1 [Compound 67, 4-{3-[3-(3-Bromo-benzyl)-2-imino-2,3-dihydro-benzoimidazol-1-yl]-propoxy}-benzoic acid methyl ester]",11 to 100
7,"CCOC(=O)c1cccc(OCCCn2c(=N)n(Cc3cccc(Br)c3)c3ccccc32)c1 [Compound 68, 3-{3-[3-(3-Bromo-benzyl)-2-imino-2,3-dihydro-benzoimidazol-1-yl]-propoxy}-benzoic acid ethyl ester]",11 to 100
8,"CCOC(=O)c1cccc(OCCCn2c(=N)n(Cc3ccc(N4CCN(Cc5ccccc5-c5ccccc5)CC4)cc3)c3ccccc32)c1 [Compound 69, 3-(3-{3-[4-(4-Biphenyl-2-ylmethyl-piperazin-1-yl)-benzyl]-2-imino-2,3-dihydro-benzoimidazol-1-yl}-propoxy)-benzoic acid ethyl ester]",< 10
9,"N=c1n(CCCOc2cccc(C(=O)O)c2)c2ccccc2n1Cc1ccc(N2CCN(Cc3ccccc3-c3ccccc3)CC2)cc1 [Compound 70, 3-(3-{3-[4-(4-Biphenyl-2-ylmethyl-piperazin-1-yl)-benzyl]-2-imino-2,3-dihydro-benzoimidazol-1-yl}-propoxy)-benzoic acid]",< 10
10,"CCOC(=O)c1cccc(OCCCn2c(=N)n(Cc3ccccc3)c3ccccc32)c1 [Compound 71, 3-[3-(3-Benzyl-2-imino-2,3-dihydro-benzoimidazol-1-yl)-propoxy]-benzoic acid ethyl ester]",11 to 100
11,"N=c1n(CCCOc2ccc(F)cc2)c2ccccc2n1Cc1cccc(C(=O)O)c1 [Compound 72, 3-{3-[3-(4-Fluoro-phenoxy)-propyl]-2-imino-2,3-dihydro-benzoimidazol-1-ylmethyl}-benzoic acid]",11 to 100
12,"CCOC(=O)c1cccc(OCCCn2c(=N)n(Cc3ccc(N4CCN(Cc5ccccc5-c5ccc(Cl)cc5)CC4)cc3)c3ccccc32)c1 [Compound 73, 3-[3-(3-{4-[4-(4′-Chloro-biphenyl-2-ylmethyl)-piperazin-1-yl]-benzyl}-2-imino-2,3-dihydro-benzoimidazol-1-yl)-propoxy]-benzoic acid ethyl ester]",< 10
13,"N=c1n(CCCOc2cccc(C(=O)O)c2)c2ccccc2n1Cc1ccc(N2CCN(Cc3ccccc3-c3ccc(Cl)cc3)CC2)cc1 [Compound 74, 3-[3-(3-{4-[4-(4′-Chloro-biphenyl-2-ylmethyl)-piperazin-1-yl]-benzyl}-2-imino-2,3-dihydro-benzoimidazol-1-yl)-propoxy]-benzoic acid]",< 10
14,"CC1(C)CCC(c2ccc(Cl)cc2)=C(CN2CCN(c3cccc(Cn4c(=N)n(CCCOc5cccc(C(=O)O)c5)c5ccccc54)c3)CC2)C1 [Compound 75, 3-{3-[3-(3-{4-[2-(4-Chloro-phenyl)-5,5-dimethyl-cyclohex-1-enylmethyl]-piperazin-1-yl}-benzyl)-2-imino-2,3-dihydro-benzoimidazol-1-yl]-propoxy}-benzoic acid]",< 10
15,"N=c1n(Cc2cccc(Br)c2)c2ccccc2n1CC(O)COc1ccc(F)cc1 (centres unmarked) [Compound 76, 1-[3-(3-Bromo-benzyl)-2-imino-2,3-dihydro-benzoimidazol-1-yl]-3-(4-fluoro-phenoxy)-propan-2-ol]",11 to 100
16,"N=c1n(Cc2ccc(Br)cc2)c2ccccc2n1CC(O)COc1ccc(F)cc1 (centres unmarked) [Compound 77, 1-[3-(4-Bromo-benzyl)-2-imino-2,3-dihydro-benzoimidazol-1-yl]-3-(4-fluoro-phenoxy)-propan-2-ol]",< 10

row,SMILES,IC50 [µM]
1,"N=c1n(Cc2ccccc2)c2ccccc2n1CC(O)COc1ccccc1 (centres unmarked) [Compound 78, 1-(3-Benzyl-2-imino-2,3-dihydro-benzoimidazol-1-yl)-3-phenoxy-propan-2-ol]",11 to 100
2,"Cc1ccccc1OCC(O)Cn1c(=N)n(Cc2ccccc2)c2ccccc21 (centres unmarked) [Compound 79, 1-(3-Benzyl-2-imino-2,3-dihydro-benzoimidazol-1-yl)-3-o-tolyloxy-propan-2-ol]",11 to 100
3,"N=c1n(Cc2ccccc2)c2ccccc2n1CC(O)COc1ccc(Cl)cc1 (centres unmarked) [Compound 80, 1-(3-Benzyl-2-imino-2,3-dihydro-benzoimidazol-1-yl)-3-(4-chloro-phenoxy)-propan-2-ol]",11 to 100
4,"N=c1n(Cc2ccccc2)c2ccccc2n1CC(O)COc1ccc([N+](=O)[O-])cc1 (centres unmarked) [Compound 81, 1-(3-Benzyl-2-imino-2,3-dihydro-benzoimidazol-1-yl)-3-(4-nitro-phenoxy)-propan-2-ol]",11 to 100
5,"N=c1n(Cc2cccc(N3CCN(Cc4ccccc4-c4ccccc4)CC3)c2)c2ccccc2n1CC(O)COc1ccc(F)cc1 (centres unmarked) [Compound 82, 1-{3-[3-(4-Biphenyl-2-ylmethyl-piperazin-1-yl)-benzyl]-2-imino-2,3-dihydro-benzoimidazol-1-yl}-3-(4-fluoro-phenoxy)-propan-2-ol]",< 10
6,"N=c1n(Cc2ccc(N3CCN(Cc4ccccc4-c4ccccc4)CC3)cc2)c2ccccc2n1CC(O)COc1ccc(F)cc1 (centres unmarked) [Compound 83, 1-{3-[4-(4-Biphenyl-2-ylmethyl-piperazin-1-yl)-benzyl]-2-imino-2,3-dihydro-benzoimidazol-1-yl}-3-(4-fluoro-phenoxy)-propan-2-ol]",< 10
7,"N=c1n(CCCOc2cccc(C(=O)O)c2)c2ccccc2n1Cc1cccc(Br)c1 [Compound 84, 3-{3-[3-(3-Bromo-benzyl)-2-imino-2,3-dihydro-benzoimidazol-1-yl]-propoxy}-benzoic acid]",11 to 100
8,"N=c1n(CCCOc2cccc(C(=O)O)c2)c2ccccc2n1Cc1ccc(Br)cc1 [Compound 85, 3-{3-[3-(4-Bromo-benzyl)-2-imino-2,3-dihydro-benzoimidazol-1-yl]-propoxy}-benzoic acid]",11 to 100
9,"CS(=O)(=O)NC(=O)c1cccc(OCCCn2c(=N)n(Cc3cccc(Br)c3)c3ccccc32)c1 [Compound 86, N-(3-{3-[3-(3-Bromo-benzyl)-2-imino-2,3-dihydro-benzoimidazol-1-yl]-propoxy}-benzoyl)-methanesulfonamide]",< 10
10,"N=c1n(CCCOc2ccc(Br)cc2)c2ccccc2n1Cc1ccccc1 [Compound 87, 1-Benzyl-3-[3-(4-bromo-phenoxy)-propyl]-1,3-dihydro-benzoimidazol-2-ylideneamine]",11 to 100
11,"COc1ccc(OCC(O)Cn2c(=N)n(Cc3ccccc3)c3ccccc32)cc1 (centres unmarked) [Compound 88, 1-(3-Benzyl-2-imino-2,3-dihydro-benzoimidazol-1-yl)-3-(4-methoxy-phenoxy)-propan-2-ol]",11 to 100
12,"COc1ccccc1OCC(O)Cn1c(=N)n(Cc2ccccc2)c2ccccc21 (centres unmarked) [Compound 89, 1-(3-Benzyl-2-imino-2,3-dihydro-benzoimidazol-1-yl)-3-(2-methoxy-phenoxy)-propan-2-ol]",11 to 100
13,"N=c1n(Cc2ccccc2)c2ccccc2n1CC(O)c1ccco1 (centres unmarked) [Compound 91, 2-(3-Benzyl-2-imino-2,3-dihydro-benzoimidazol-1-yl)-1-furan-2-yl-ethanol]",> 100
14,"N=c1n(Cc2ccccc2)c2ccccc2n1CC(O)c1ccccc1 (centres unmarked) [Compound 92, 2-(3-Benzyl-2-imino-2,3-dihydro-benzoimidazol-1-yl)-1-phenyl-ethanol]",> 100
15,"CCCCn1c(=N)n(CC(O)COc2ccccc2OC)c2ccccc21 (centres unmarked) [Compound 93, 1-(3-Butyl-2-imino-2,3-dihydro-benzoimidazol-1-yl)-3-(2-methoxy-phenoxy)-propan-2-ol]",> 100
16,"Cc1ccccc1Cn1c(=N)n(CCCOc2ccccc2)c2ccccc21 [Compound 94, 1-(2-Methyl-benzyl)-3-(3-phenoxy-propyl)-1,3-dihydro-benzoimidazol-2-ylideneamine]",11 to 100
